Measured values taken from US12043617B2, “4-(N-methyl) aminopiperidine myricetin derivative containing dithiocarbamate, preparation method and application” (Guizhou University, priority 2019, dated 2024).

System: SMMC-7721 cells
Assay: MTT colorimetry, inhibition of hepatocellular carcinoma SMMC-7721 cell activity
Type: cell-based
Conditions: 48 hours
Method: Test for Inhibition of Cancer Cell Activity by Compound of Embodiment 19 (Taking Hepatocellular Carcinoma SMMC-7721 Cells as an embodiment):
SMMC-7721 cells are cultured in DMEM high sugar medium containing 10% fetal bovine serum in a saturated humidity incubator at 37° C. and 5% CO2. The culture medium is changed every two days and passaged every 3-4 days. The drug is prepared as 1 mmol/L and 10 mmol/L storage solution using DMSO as solvent, when used, the concentration is diluted into 1 μmol/L and 10 μmol/L with culture medium, using DMSO as negative control group and gemcitabine as positive control group to act on cells in logarithmic growth phase.
Cells in logarithmic growth phase are digested with 0.025% pancreatin, and then digested with DMEM high sugar medium containing 10% fetal bovine serum. After centrifugation, the cells are suspended in DMEM high sugar medium containing 10% fetal bovine serum. Take a 96-well plate and add 200 μL of sterile water seal to each hole around the plate to ensure saturated humidity in the experiment. In the middle six rows, 100 μL of cell suspension are added respectively, and the cell concentration is about 3.5×10^4 cells/mL. The last row is blank control group, and the same volume of complete culture medium is added. In 37° C., 5% CO2 saturated humidity incubator culture for 24 hours, cells completely adhere to the wall, remove the culture medium, add complete culture medium containing different drugs, 200 μL per hole. The blank control group is added with 200 μL of complete culture medium, and the culture is continued. After 24 hours, the drug effect is observed and photographed under an inverted microscope. After 48 hours, the drug effect is also observed and photographed under an inverted microscope. Then the supernatant is removed. 100 μL of 0.5 mg/mL MTT solution is added to each well. After 4 hours of continuous culture, purple crystal formazan is generated. 100 μL of 10% SDS is added to each well. After 12 hours of culture in an incubator at 37° C., the OD value is measured with an enzyme reader at A571 wavelength. Repeat 6 wells for each sample concentration, and calculate the inhibition rate by taking the average value.

| SMILES | Inhibition Rate (%) (1 μmol/L) | Inhibition Rate (%) (10 μmol/L) |
| --- | --- | --- |
| COc1cc(OC)c2c(=O)c(OCCCN(C)C3CCN(C(=S)SCc4ccc(Cl)cc4)CC3)c(-c3cc(OC)c(OC)c(OC)c3)oc2c1 [Compound A1, 4-chlorobenzyl 4-((3-((5,7-dimethoxy-4-oxo-2-(3,4,5-trimethoxyphenyl)-4H-chromene-3-yl)oxy)propyl)(methyl)amino)piperidine-1-dithiocarboxylic acid] | 21.82 ± 2.34 | 95.51 ± 4.16 |
| COc1cc(OC)c2c(=O)c(OCCCN(C)C3CCN(C(=S)SCc4ccccc4Cl)CC3)c(-c3cc(OC)c(OC)c(OC)c3)oc2c1 [Compound A2, 2-chlorobenzyl-4-((3-((5,7-dimethoxy-4-oxo-2-(3,4,5-trimethoxyphenyl)-4H-chromene-3-yl)oxy)propyl)(methyl)amino)piperidine-1-dithiocarboxylic acid] | 25.44 ± 3.25 | 96.13 ± 3.42 |
| COc1cc(OC)c2c(=O)c(OCCCN(C)C3CCN(C(=S)SCc4ccc(Cl)cc4Cl)CC3)c(-c3cc(OC)c(OC)c(OC)c3)oc2c1 [Compound A3, 2,4-dichlorobenzyl 4-((3-((5,7-dimethoxy-4-oxo-2-(3,4,5-trimethoxyphenyl)-4H-chromene-3-yl)oxy)propyl) (methyl)amino) piperidine-1-dithiocarboxylic acid] | 18.16 ± 2.14 | 97.35 ± 1.78 |
| COc1cc(OC)c2c(=O)c(OCCCN(C)C3CCN(C(=S)SCc4ccccc4F)CC3)c(-c3cc(OC)c(OC)c(OC)c3)oc2c1 [Compound A4, 2-fluorobenzyl 4-((3-((5,7-dimethoxy-4-oxo-2-(3,4,5-trimethoxyphenyl)-4H-chromene-3-yl)oxy)propyl)(methyl)amino) piperidine-1-dithiocarboxylic acid] | 20.66 ± 1.21 | 99.85 ± 1.64 |
| COc1cc(OC)c2c(=O)c(OCCCN(C)C3CCN(C(=S)SCc4cccc(C)c4)CC3)c(-c3cc(OC)c(OC)c(OC)c3)oc2c1 [Compound A5, 3-methylbenzyl 4-((3-((5,7-dimethoxy-4-oxo-2-(3,4,5-trimethoxyphenyl)-4H-chromene-3-yl)oxy)propyl) (methyl)amino) piperidine-1-dithiocarboxylic acid] | 12.32 ± 2.39 | 97.52 ± 1.12 |
| COc1cc(OC)c2c(=O)c(OCCCN(C)C3CCN(C(=S)SCc4ccccc4C)CC3)c(-c3cc(OC)c(OC)c(OC)c3)oc2c1 [Compound A6, 2-methylbenzyl 4-((3-((5,7-dimethoxy-4-oxo-2-(3,4,5-trimethoxyphenyl)-4H-chromene-3-yl)oxy)propyl) (methyl)amino) piperidine-1-dithiocarboxylic acid] | 34.32 ± 2.69 | 98.12 ± 2.76 |
| COc1cc(OC)c2c(=O)c(OCCCN(C)C3CCN(C(=S)SCc4ccc([N+](=O)[O-])cc4)CC3)c(-c3cc(OC)c(OC)c(OC)c3)oc2c1 [Compound A7, 4-nitrobenzyl 4-((3-((5,7-dimethoxy-4-oxo-2-(3,4,5-trimethoxyphenyl)-4H-chromene-3-yl)oxy)propyl) (methyl)amino) piperidine-1-dithiocarboxylic acid] | 27.70 ± 1.09 | 99.35 ± 3.48 |
| COc1cc(OC)c2c(=O)c(OCCCN(C)C3CCN(C(=S)SCc4cccnc4)CC3)c(-c3cc(OC)c(OC)c(OC)c3)oc2c1 [Compound A8, pyridine-3-ylmethyl 4-((3-((5,7-dimethoxy-4-oxo-2-(3,4,5-trimethoxyphenyl)-4H-chromene-3-yl)oxy)propyl) (methyl)amino) piperidine-1-dithiocarboxylic acid] | 15.48 ± 2.74 | 99.85 ± 1.64 |
| COc1cc(OC)c2c(=O)c(OCCCN(C)C3CCN(C(=S)SCc4ccc(Cl)nc4)CC3)c(-c3cc(OC)c(OC)c(OC)c3)oc2c1 [Compound A9, (6-chloropyridine-3-yl) methyl 4-((3-((5,7-dimethoxy-4-oxo-2-(3,4,5-trimethoxyphenyl)-4H-benzopyran-3-yl)oxygen)propyl) (methyl)amino) piperidine-1-dithiocarboxylic acid] | 18.83 ± 3.15 | 99.76 ± 1.06 |
| COc1cc(OC)c2c(=O)c(OCCCCN(C)C3CCN(C(=S)SCc4ccc(Cl)cc4)CC3)c(-c3cc(OC)c(OC)c(OC)c3)oc2c1 [Compound A10, 4-chlorobenzyl-4-((4-((5,7-dimethoxy-4-oxo-2-(3,4,5-trimethoxyphenyl)-4H-benzopyran-3-yl)oxy)butyl) (methyl)amino) piperidine-1-dithiocarboxylic acid] | 92.83 ± 3.84 | 97.85 ± 3.35 |
| COc1cc(OC)c2c(=O)c(OCCCCN(C)C3CCN(C(=S)SCc4ccccc4Cl)CC3)c(-c3cc(OC)c(OC)c(OC)c3)oc2c1 [Compound A11, 2-chlorobenzyl-4-((4-((5,7-dimethoxy-4-oxo-2-(3,4,5-trimethoxyphenyl)-4H-benzopyran-3-yl)oxy)butyl) (methyl)amino) piperidine-1-dithiocarboxylic acid] | 91.00 ± 2.86 | 99.85 ± 1.64 |
| COc1cc(OC)c2c(=O)c(OCCCCN(C)C3CCN(C(=S)SCc4ccc(Cl)cc4Cl)CC3)c(-c3cc(OC)c(OC)c(OC)c3)oc2c1 [Compound A12, 2,4-dichlorobenzyl-4-((4-((5,7-dimethoxy-4-oxo-2-(3,4,5-trimethoxyphenyl)-4H-benzopyran-3-yl)oxy)butyl) (methyl)amino) piperidine-1-dithiocarboxylic acid] | 98.09 ± 2.68 | 99.28 ± 1.04 |
| COc1cc(OC)c2c(=O)c(OCCCCN(C)C3CCN(C(=S)SCc4ccccc4F)CC3)c(-c3cc(OC)c(OC)c(OC)c3)oc2c1 [Compound A13, 2-fluorobenzyl-4-((4-((5,7-dimethoxy-4-oxo-2-(3,4,5-trimethoxyphenyl)-4H-benzopyran-3-yl)oxy)butyl) (methyl)amino) piperidine-1-dithiocarboxylic acid] | 46.96 ± 4.65 | 99.76 ± 1.06 |
| COc1cc(OC)c2c(=O)c(OCCCCN(C)C3CCN(C(=S)SCc4cccc(C)c4)CC3)c(-c3cc(OC)c(OC)c(OC)c3)oc2c1 [Compound A14, 3-methylbenzyl-4-((4-((5,7-dimethoxy-4-oxo-2-(3,4,5-trimethoxyphenyl)-4H-benzopyran-3-yl)oxy)butyl) (methyl)amino) piperidine-1-dithiocarboxylic acid] | 96.65 ± 2.61 | 100 ± 0.42 |
| COc1cc(OC)c2c(=O)c(OCCCCN(C)C3CCN(C(=S)SCc4ccccc4C)CC3)c(-c3cc(OC)c(OC)c(OC)c3)oc2c1 [Compound A15, 2-methylbenzyl-4-((4-((5,7-dimethoxy-4-oxo-2-(3,4,5-trimethoxyphenyl)-4H-benzopyran-3-yl)oxy)butyl) (methyl)amino) piperidine-1-dithiocarboxylic acid] | 16.38 ± 3.82 | 99.52 ± 1.12 |
| COc1cc(OC)c2c(=O)c(OCCCCN(C)C3CCN(C(=S)SCc4ccc([N+](=O)[O-])cc4)CC3)c(-c3cc(OC)c(OC)c(OC)c3)oc2c1 [Compound A16, 4-nitrobenzyl-4-((4-((5,7-dimethoxy-4-oxo-2-(3,4,5-trimethoxyphenyl)-4H-benzopyran-3-yl)oxy)butyl) (methyl)amino) piperidine-1-dithiocarboxylic acid] | 26.84 ± 4.36 | 99.85 ± 0.71 |
| COc1cc(OC)c2c(=O)c(OCCCCN(C)C3CCN(C(=S)SCc4cccnc4)CC3)c(-c3cc(OC)c(OC)c(OC)c3)oc2c1 [Compound A17, pyridine-3-ylmethyl-4-((4-((5,7-dimethoxy-4-oxo-2-(3,4,5-trimethoxyphenyl)-4H-benzopyran-3-yl)oxy)butyl) (methyl)amino) piperidine-1-dithiocarboxylic acid] | 68.42 ± 2.35 | 100 ± 1.31 |
| COc1cc(OC)c2c(=O)c(OCCCCN(C)C3CCN(C(=S)SCc4ccc(Cl)nc4)CC3)c(-c3cc(OC)c(OC)c(OC)c3)oc2c1 [Compound A18, (6-chloropyridine-3-yl) methyl-4-((4-((5,7-dimethoxy-4-oxo-2-(3,4,5-trimethoxyphenyl)-4H-benzopyran-3-yl)oxy)butyl) (methyl)amino) piperidine-1-dithiocarboxylic acid] | 33.58 ± 1.67 | 100 ± 0.42 |
